In paper PMC8126888 (RSC Medicinal Chemistry, 2020):
Read-outs that look alike come from different tables or passages of the source.

Assays:
[1] = test system: primary peritoneal mouse macrophages (PMM); conditions: PMM IC50 / L. infantum IC50
[2] = in vitro; conditions: Swiss, mouse
[3] = in vitro; conditions: human, microsomes, human liver microsomes
[4] = in vitro; conditions: mouse, microsomes, mouse liver microsomes
[5] = physchem; conditions: HPLC, Ascentis Express RP Amide column, pH 7.4, eLogD
[6] = in vitro; conditions: human
[7] = in vitro; conditions: PAMPA
[8] = test system: Leishmania infantum MHOM/MA(BE)/67/ITMAP263 intracellular amastigotes; assay: microbe, parasite or virus in culture; conditions: Macrophage, in Mus musculus
[9] = test system: Trypanosoma cruzi, Tulahuen CL2, beta-galactosidase strain; assay: microbe, parasite or virus in culture
[10] = test system: primary peritoneal mouse macrophages (PMM); assay: cells; conditions: Macrophage, read-out: PMM IC50 (uM)
[11] = in vitro; conditions: human, THP-1 cells differentiated with PMA
[12] = in vitro; conditions: human, HFF-1 cells
[13] = in vitro; conditions: human, HepG2 cells
[14] = in vitro; conditions: PAMPA; remark: listed apart in the source
[15] = test system: Leishmania infantum (MHOM/MA/67/ITMAP-263) intracellular amastigotes in THP-1; assay: microbe, parasite or virus in culture; conditions: THP-1, read-out: L. infantum MHOM/MA/67/ITMAP263 intracellular amastigotes THP-1 cells IC50 (uM)
[16] = read-out: L. Inf. pIC50, from L. infantum intracellular amastigote IC50 (converted)
[17] = read-out: L. infantum MHOM/MA(BE)/67/ITMAP263 intracellular amastigotes IC50
[18] = MRC5, read-out: T. cruzi Tulahuen C4 (LacZ) IC50
[19] = read-out: L. infantum MHOM/MA(BE)/67/ITMAP263 intracellular amastigotes IC50 (uM), intracellular amastigotes
[20] = MRC5, read-out: T. cruzi Tulahuen C4 (LacZ) IC50 (uM)

SMILES	SI (vs PMM) [1]	IC50 [2]	microsomal CLint at 0.5 μM ([3]; pH 7.4, HLM CLint)	microsomal CLint at 0.5 μM ([4]; pH 7.4, MLM CLint)	chromatographic logD [5]	CC50 at 3 days [6]	Papp [7]	IC50 [8, 16]	IC50 [8, 17]	IC50 [9, 18]	IC50 [10]	microsomal CLint at 0.5 μM ([3]; pH 7.4, HLM CLint (uL/min/mg))	microsomal CLint at 0.5 μM ([4]; pH 7.4, MLM CLint (uL/min/mg))	chromatographic logD ([5]; experimental)	CC50 at 120 h [11]	CC50 [12]	CC50 [13]	Papp [14]	IC50 [8, 19]	IC50 [15]	further results
CC[C@H](Cc1ccccc1)S(=O)(=O)c1ccccc1OC [DNDI0003362003]	2	> 64 µM	458 µL/min/mg	1060 µL/min/mg	3.5	> 64 µM	19.8 ×10⁻⁶ cm/s	34.7 µM	34.6 µM	31.7 µM	–	–	–	–	–	–	–	–	–	–	–
CCN(Cc1ccccc1)S(=O)(=O)c1cc(OC)ccc1OC [DNDI0003365407]	25	> 64 µM	534 µL/min/mg	3500 µL/min/mg	–	> 64 µM	11.9 ×10⁻⁶ cm/s	2.51 µM	2.53 µM	27.4 µM	–	–	–	–	–	–	–	–	–	–	–
CCN(Cc1ccccc1)S(=O)(=O)c1cc(F)ccc1N1CCCC1 [DNDI0003364614]	4	50.8 µM	1470 µL/min/mg	3000 µL/min/mg	4.9	> 64 µM	0.34 ×10⁻⁶ cm/s	12.9 µM	12.9 µM	7.33 µM	–	–	–	–	–	–	–	–	–	–	–
COCCN(Cc1ccccc1)S(=O)(=O)c1ccccc1 [DNDI0003363821]	2	> 64 µM	239 µL/min/mg	2990 µL/min/mg	3.5	> 64 µM	25.3 ×10⁻⁶ cm/s	40.7 µM	40.5 µM	39.3 µM	–	–	–	–	–	–	–	–	–	–	–
COc1ccc(OC)c(S(=O)(=O)NCc2ccccc2)c1 [DNDI0003365408]	1	> 64 µM	126 µL/min/mg	1250 µL/min/mg	2.8	> 64 µM	16.8 ×10⁻⁶ cm/s	> 64 µM	> 64 µM	> 64 µM	–	–	–	–	–	–	–	–	–	–	–
COc1ccc(OC)c(S(=O)(=O)N(Cc2ccccc2)Cc2ccccc2)c1 [DNDI0003292440]	–	> 64 µM	242 µL/min/mg	1300 µL/min/mg	–	45.2 µM	0.43 ×10⁻⁶ cm/s	0.372 µM	0.36 µM	5.71 µM	–	–	–	–	–	–	–	–	–	–	–
O=S(=O)(NCc1ccccc1)c1cc(F)ccc1F [DNDI0003365406]	1	> 64 µM	75 µL/min/mg	260 µL/min/mg	3.2	> 64 µM	30.4 ×10⁻⁶ cm/s	49 µM	49.4 µM	> 64 µM	–	–	–	–	–	–	–	–	–	–	–
COc1ccc(Cl)cc1S(=O)(=O)N(CCO)Cc1ccccc1 [DNDI0003366068]	2	> 64 µM	180 µL/min/mg	–	3.5	> 64 µM	20.1 ×10⁻⁶ cm/s	37.2 µM	37.5 µM	26.8 µM	–	–	–	–	–	–	–	–	–	–	–
CCN(Cc1ccccc1)S(=O)(=O)c1ccccc1 [DNDI0003363563]	1	> 64 µM	418 µL/min/mg	1180 µL/min/mg	3.8	> 64 µM	7.54 ×10⁻⁶ cm/s	> 64 µM	> 64 µM	32.1 µM	–	–	–	–	–	–	–	–	–	–	–
CCN(Cc1ccccc1)S(=O)(=O)c1ccc(OC)cc1 [DNDI0003297130]	6	> 64 µM	676 µL/min/mg	3010 µL/min/mg	3.9	> 64 µM	7.68 ×10⁻⁶ cm/s	11 µM	11 µM	18.5 µM	–	–	–	–	–	–	–	–	–	–	–
CC[C@H](Cc1ccccc1)[S+]([O-])c1ccccc1OC (stereo partly drawn) [DNDI0003362001]	1	> 64 µM	390 µL/min/mg	3620 µL/min/mg	3.7	> 64 µM	9.42 ×10⁻⁶ cm/s	52.5 µM	52.5 µM	31.5 µM	–	–	–	–	–	–	–	–	–	–	–
COc1ccc(C#N)cc1S(=O)(=O)N(Cc1ccc(C(F)(F)F)nc1)Cc1ccc(C(F)(F)F)nc1 [DNDI0003578377]	–	–	–	–	–	> 64 µM	–	38 µM	–	–	> 64 µM	17 µL/min/mg	64 µL/min/mg	3.9	> 64 µM	> 64 µM	> 64 µM	3.45 ×10⁻⁶ cm/s	38.1 µM	> 64 µM	IC50 [9, 20]: 61.7 µM
CCCCC(=O)Nc1cccnc1S(=O)(=O)CCc1ccccc1 [DNDI0003363561]	1	> 64 µM	–	–	3.9	> 64 µM	18.9 ×10⁻⁶ cm/s	> 64 µM	> 64 µM	> 64 µM	–	–	–	–	–	–	–	–	–	–	–
COc1ccc(S(N)(=O)=O)cc1S(=O)(=O)NCc1ccccc1 [DNDI0003407892]	–	–	–	–	–	> 64 µM	–	> 64 µM	–	–	> 64 µM	20 µL/min/mg	23 µL/min/mg	1.1	> 64 µM	> 64 µM	> 64 µM	0.61 ×10⁻⁶ cm/s	> 64 µM	> 64 µM	IC50 [9, 20]: > 64 µM
COc1cc2c(cc1S(=O)(=O)N(Cc1ccccc1)Cc1ccccc1)S(=O)(=O)NCN2 [DNDI0003425513]	–	–	–	–	–	22.9 µM	–	2.51 µM	–	–	> 64 µM	100 µL/min/mg	249 µL/min/mg	3.6	> 64 µM	21.9 µM	> 64 µM	0.38 ×10⁻⁶ cm/s	2.53 µM	48.3 µM	IC50 [9, 20]: 9.44 µM
COc1ccc(C(=O)N2CCOCC2)cc1S(=O)(=O)N(Cc1ccc(C(F)(F)F)nc1)C(C)c1ccc(F)cc1 (stereo not drawn) [DNDI0003407905]	–	–	–	–	–	> 64 µM	–	2.34 µM	–	–	> 64 µM	267 µL/min/mg	531 µL/min/mg	3.8	> 64 µM	49.4 µM	> 64 µM	18.1 ×10⁻⁶ cm/s	2.36 µM	9.86 µM	IC50 [9, 20]: 25 µM
NS(=O)(=O)c1cc2c(cc1Cl)NCN(Cc1ccccc1)S2(=O)=O [DNDI0003392143]	–	–	–	–	–	> 64 µM	–	57.5 µM	–	–	> 64 µM	21 µL/min/mg	164 µL/min/mg	2.3	> 64 µM	> 64 µM	> 64 µM	2.83 ×10⁻⁶ cm/s	57 µM	> 64 µM	IC50 [9, 20]: 27.2 µM
COc1ccc(S(C)(=O)=O)cc1S(=O)(=O)N(Cc1ccccc1)Cc1cc(C(F)(F)F)nn1C [DNDI0003578374]	–	–	–	–	–	> 64 µM	–	13.2 µM	–	–	> 64 µM	60 µL/min/mg	182 µL/min/mg	3.5	> 64 µM	> 64 µM	> 64 µM	7.6 ×10⁻⁶ cm/s	13.1 µM	> 64 µM	IC50 [9, 20]: > 64 µM
CCN(Cc1ccccc1)S(=O)(=O)c1ccc(C)cc1 [DNDI0003297129]	1	> 64 µM	1740 µL/min/mg	–	4.1	> 64 µM	5.38 ×10⁻⁶ cm/s	49 µM	49.4 µM	28.8 µM	–	–	–	–	–	–	–	–	–	–	–
